Reference: patent US20230174488A1 (priority 2020, published 2023)
Values after ≈ are worked out from the molar mass of the structure shown. Like-named read-outs stand apart in the source and are kept apart here.

Columns and labels:
[1] = molecular target: T1, SARS-CoV-2 M^PRO (Severe acute respiratory syndrome coronavirus 2, UniProt P0DTD1); test: biochemical; assay type: biochemical
[2] = tested on: SARS-CoV-2; test: In vitro antiviral cell-based assay (live SARS-CoV-2 IFA) in Vero cells; conditions: Severe acute respiratory syndrome coronavirus 2, MOI ~0.0125, 24 hpi
[3] = molecular target: T1, SARS-CoV-2 M^PRO; test: Crystal structure of ligand bound to SARS-CoV-2 M^pro; conditions: X-ray, complex with SARS-CoV-2 M^pro
[4] = in vitro; conditions: African green monkey
[5] = Caco-2 permeability; assay type: in vitro ADME; conditions: human, Caco-2, pH 7.4
Method: Medium was refreshed every 4 \~5 days until the 21st to 28th day for confluent cell monolayer formation. The transport buffer was HBSS with 10 mM HEPES at pH=7.40±0.05. […] Final DMSO concentration was adjusted to less than 1%. The plate was incubated for 2 h in the CO2 incubator at 37±1° C., with 5% CO2 at saturated humidity without shaking. All the samples were then mixed with acetonitrile containing internal standard and centrifuged at 3200 xg for 10 min. For nadolol and metoprolol, 100 µL supernatant solution was diluted with 300 µL distilled water for LC-MS/MS analysis. For digoxin and test compounds, 100 µL supernatant solution was diluted with 100 µL distilled water for LC-MS/MS analysis. Concentrations of test and control compounds in starting solution, donor solution, and receiver solution were quantified by LC-MS/MS methodologies, using peak area ratio of analyte/internal standard. After transport assay, lucifer yellow rejection assay was applied to determine the Caco-2 cell monolayer integrity. The apparent permeability coefficient Papp (cm/s) was calculated using the equation:
where d/Cr/6t is the cumulative concentration of compound in the receiver chamber as a function of time (µM/s); Vr is the solution volume in the receiver chamber (0.075 mL on the apical side, 0.25 mL on the basolateral side); A is the surface area for the transport, i.e. 0.0804 cm^2 for the area of the monolayer; C0 is the initial concentration in the donor chamber (µM).
The efflux ratio was calculated using the equation:
where Vd is the volume in the donor chambers (0.075 mL on the apical side, 0.25 mL on the basolateral side); Cd and Cr are the final concentrations of the transport compound in donor and receiver chambers, respectively.

[6] = PAMPA permeability assay; assay type: in vitro ADME
Method: 2.6 g KH2PO4 and 18.5 g K3PHO4×3H2O were dissolved in 1000 mL of ultra-pure water, mixed thoroughly. The pH was adjusted to 7.40 ± 0.05, using either 1 M sodium hydroxide or 1 M hydrochloric acid. 0.2 mM working solution was prepared by diluting 10 mM stock solution with DMSO. 10 µM donor solution (5% DMSO) was prepared by diluting 20 µL of working solution with 380 µL PBS. 150 µL of 10 µM donor solutions to each well of the donor plate, whose PVDF membrane was precoated with 5 µL of 1% lecithin/dodecane mixture. Duplicates were prepared. 300 µL of PBS was added to each well of the PTFE acceptor plate. The donor plate and acceptor plate were combined together and incubated for 4 h at room temperature with shaking at 300 rpm. […] Preparation of acceptor sample: the plate was removed from the incubator. 270 µL solution was transferred from each acceptor well and mixed with 130 µL ACN (containing internal standard) as acceptor sample. […] Acceptor samples and donor samples were all analyzed by LC-MS/MS.

[7] = molecular target: CYP 2C9 (Homo sapiens, UniProt P11712); test: biochemical
Chain of CYP 2C9 (P11712 whole entry): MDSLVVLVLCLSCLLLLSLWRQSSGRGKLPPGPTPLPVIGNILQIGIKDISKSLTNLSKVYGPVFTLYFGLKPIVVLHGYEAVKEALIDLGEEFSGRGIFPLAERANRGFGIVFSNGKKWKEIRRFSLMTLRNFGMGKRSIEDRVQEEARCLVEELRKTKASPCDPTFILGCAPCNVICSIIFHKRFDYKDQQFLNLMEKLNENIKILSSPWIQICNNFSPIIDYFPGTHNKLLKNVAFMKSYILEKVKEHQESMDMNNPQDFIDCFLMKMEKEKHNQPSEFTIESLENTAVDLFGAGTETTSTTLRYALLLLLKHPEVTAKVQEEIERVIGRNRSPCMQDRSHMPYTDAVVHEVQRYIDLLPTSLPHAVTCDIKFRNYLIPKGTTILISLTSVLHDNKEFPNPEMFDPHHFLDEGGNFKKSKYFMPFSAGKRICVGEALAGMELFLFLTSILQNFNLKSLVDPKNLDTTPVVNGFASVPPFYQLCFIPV
Method: (§1) The following reagents/reactants were used in the assay: water was purified by ELGA Lab purification systems, buffer solution: PB (100 mM), MgCl2 (33 mM), organic solvents were AR or HPLC grade, CYP substrates: phenacetin (10 µM, 25 µL, 1A2), diclofenac (5 µM, 25 µL, 2C9), S-mephenytoin (30 µM, 75 µL, 2C19), dextromethorphan (5 µM, 12,5, 2D6), and midazolam (2 µM, 10 µL, 3A4), stock solutions were prepared in MeOH (20, 10, 20, 20, and 10 mM, respectively). Positive controls: α-naphthoflavone, sulfaphenazole, (+)-N-3-benzylnirvanol, quinidine, and ketoconazole, final concentration was 3 µM in MeOH (90 µL), stock solutions were prepared in DMSO (3 mM for all the inhibitors). Test compounds were evaluated using five conc. points at the range of 15-5,000 µM. […] Main procedure: working solution (100×) of the test compound and standard inhibitors were prepared, microsomes were pulled out of the -80° C. freezer to thaw on ice, labeled the date and put it back to the freezer immediately after use. Substrates (20 µL) and PB (20 µL) were added to corresponding wells and Blank wells, respectively. […] HLM working solution (158 µL) was added to all wells of the incubation plate. Plate was pre-warmed for about 10 min at 37° C. in a water bath, then NADPH (20 µL) was added to all incubation wells. CYPs were mixed and incubated for 10 min at 37° C. in a water bath. The reaction was terminated at the time point by adding a 400 µL cold stop solution (200 ng/mL tolbutamide and labetalol in ACN). Samples were centrifuged at 4000 rpm for 20 minutes to precipitate protein. Supernatant (200 µL) was transferred to 100 µL HPLC water and shaken for 10 min, then samples were subjected for LC/MS/MS analysis. XL fit was used to plot the percent of vehicle control vs the test compound concentrations, and for non-linear regression analysis of the data. IC50 values were determined using 3- or 4-parameter logistic equations.

[8] = molecular target: CYP 3A4 (Homo sapiens, UniProt P08684); test: CYP inhibition assay, 3A4
Chain of CYP 3A4 (P08684 whole entry): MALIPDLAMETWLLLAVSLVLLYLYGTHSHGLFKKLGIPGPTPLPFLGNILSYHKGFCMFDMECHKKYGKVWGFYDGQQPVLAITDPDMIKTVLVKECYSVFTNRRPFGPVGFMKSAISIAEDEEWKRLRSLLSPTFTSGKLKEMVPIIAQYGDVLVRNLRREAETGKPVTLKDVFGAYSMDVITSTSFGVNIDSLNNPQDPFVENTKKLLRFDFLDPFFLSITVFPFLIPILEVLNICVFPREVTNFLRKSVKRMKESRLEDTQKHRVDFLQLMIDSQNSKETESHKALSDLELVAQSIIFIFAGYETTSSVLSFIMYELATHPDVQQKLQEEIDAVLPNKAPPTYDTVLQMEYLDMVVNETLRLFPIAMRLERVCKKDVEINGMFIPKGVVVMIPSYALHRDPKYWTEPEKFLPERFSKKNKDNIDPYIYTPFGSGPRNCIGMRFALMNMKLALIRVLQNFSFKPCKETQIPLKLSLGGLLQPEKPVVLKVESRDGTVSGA
Method: as §1

[9] = Plasma stability, mice; assay type: in vitro ADME; conditions: mouse, pH 7.4
Method: (§2) Propantheline bromide was used as a reference compound in this assay. The pooled frozen plasma was thawed in a water bath at 37° C. prior to experiment. Plasma was centrifuged at 4000 rpm for 5 min and the clots were removed if any. The pH will be adjusted to 7.4 ± 0.1 if required.
(§3) Preparation of compounds: 1 mM intermediate solution was prepared by diluting 10 µL of the stock solution with 90 µL DMSO; 1 mM intermediate of positive control Propantheline was prepared by diluting 10 µL of the stock solution with 90 µL ultrapure water. For test compounds, 100 µM dosing solution was prepared by diluting 10 µL of the intermediate solution (1 mM) with 90 µL DMSO. […] 98 µL of blank plasma was spiked with 2 µL of dosing solution (100 µM) to achieve 2 µM of the final concentration in duplicate and samples were Incubated at 37° C. in a water bath. […] Centrifuged sample plates at 4,000 rpm for 10 min. An aliquot of supernatant (50 µL) was transferred from each well and mixed with 100 µL ultra-pure water. The samples were shaken at 800 rpm for about 10 min before submitting to LC-MS/MS analysis. The % remaining of test compound after incubation in plasma was calculated using following equation:
(§4) where PAR is the peak area ratio of analyte versus internal standard (IS).

[10] = physchem; conditions: water, kinetic from dmso stock
[11] = Plasma stability, human; assay type: in vitro ADME; conditions: pH 7.4
Method: as §2, §3, §4

[12] = molecular target: CYP 2D6 (Homo sapiens, UniProt P10635); test: CYP inhibition assay, 2D6
Chain of CYP 2D6 (P10635 whole entry): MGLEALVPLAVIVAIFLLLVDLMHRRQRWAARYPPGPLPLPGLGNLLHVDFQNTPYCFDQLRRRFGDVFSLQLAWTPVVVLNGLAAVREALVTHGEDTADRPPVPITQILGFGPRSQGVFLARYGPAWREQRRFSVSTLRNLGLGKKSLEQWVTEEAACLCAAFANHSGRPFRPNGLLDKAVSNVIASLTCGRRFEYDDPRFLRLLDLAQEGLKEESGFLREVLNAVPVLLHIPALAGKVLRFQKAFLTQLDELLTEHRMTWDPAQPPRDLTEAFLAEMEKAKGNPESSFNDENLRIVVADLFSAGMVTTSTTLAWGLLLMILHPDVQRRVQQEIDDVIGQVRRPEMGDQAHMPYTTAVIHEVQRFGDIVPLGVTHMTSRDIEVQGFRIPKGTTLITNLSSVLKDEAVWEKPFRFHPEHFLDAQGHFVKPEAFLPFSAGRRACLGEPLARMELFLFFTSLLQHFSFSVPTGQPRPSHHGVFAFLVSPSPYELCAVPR
Method: as §1

[13] = in vitro; conditions: mouse
[14] = molecular target: T2, CYP 1A2 (Homo sapiens, UniProt P05177); test: CYP inhibition assay, 1A2
T2 sequence (P05177 1-516): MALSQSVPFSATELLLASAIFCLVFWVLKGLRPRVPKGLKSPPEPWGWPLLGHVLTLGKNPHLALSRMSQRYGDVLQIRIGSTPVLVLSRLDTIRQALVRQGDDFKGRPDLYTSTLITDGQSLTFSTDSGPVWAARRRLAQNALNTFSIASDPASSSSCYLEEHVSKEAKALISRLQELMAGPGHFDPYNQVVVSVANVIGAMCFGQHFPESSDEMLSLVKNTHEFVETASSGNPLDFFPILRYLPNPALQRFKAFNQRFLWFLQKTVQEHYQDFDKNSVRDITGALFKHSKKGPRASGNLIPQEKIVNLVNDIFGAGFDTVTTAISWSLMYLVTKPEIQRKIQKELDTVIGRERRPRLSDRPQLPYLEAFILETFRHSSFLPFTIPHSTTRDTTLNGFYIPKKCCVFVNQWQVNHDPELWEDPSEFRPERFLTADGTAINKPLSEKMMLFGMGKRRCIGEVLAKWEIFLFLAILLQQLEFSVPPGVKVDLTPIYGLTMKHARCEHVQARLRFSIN
Method: as §1

[15] = molecular target: CYP 2C19 (Homo sapiens, UniProt P33261); test: CYP inhibition assay, 2C19
Chain of CYP 2C19 (P33261 whole entry): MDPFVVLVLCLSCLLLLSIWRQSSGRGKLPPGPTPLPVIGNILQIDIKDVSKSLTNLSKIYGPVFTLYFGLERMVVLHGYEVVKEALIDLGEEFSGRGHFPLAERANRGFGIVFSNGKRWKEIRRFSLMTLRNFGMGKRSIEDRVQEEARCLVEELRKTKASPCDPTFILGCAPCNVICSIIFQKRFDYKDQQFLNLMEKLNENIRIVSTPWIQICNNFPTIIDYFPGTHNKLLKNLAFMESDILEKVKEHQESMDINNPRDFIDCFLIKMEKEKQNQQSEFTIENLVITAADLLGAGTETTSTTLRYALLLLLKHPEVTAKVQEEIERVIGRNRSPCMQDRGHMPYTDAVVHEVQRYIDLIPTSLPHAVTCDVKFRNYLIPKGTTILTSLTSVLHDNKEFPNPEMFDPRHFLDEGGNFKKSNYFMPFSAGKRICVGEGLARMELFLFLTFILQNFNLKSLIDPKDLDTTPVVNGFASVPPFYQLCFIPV
Method: as §1

[16] = Microsomal stability, mouse liver microsomes; assay type: in vitro ADME; conditions: CD-1, mouse
Method: (§5) Cold ACN, including 100 ng/ml tolbutamide and 100 ng/ml labetalol as internal standard (IS), was used for the stop solution. Compound or control working solution (10 µl per well) was added to all plates (T0, T5, T10, T20, T30, T60, and NCF60), except the matrix blank. Dispensed microsome solution (80 µl per well) was added to every plate by Apricot and the mixture of microsome solution and compound was incubated at 37° C. for approximately 10 min. After prewarming, a dispensed NADPH regenerating system (10 µl per well) was added to every plate by Apricot to start a reaction. The solution was then incubated at 37° C. Stop solution (300 µl per well, 4° C.) was then added to terminate the reaction. The sampling plates were shaken for approximately 10 minutes. The samples were centrifuged at 4,000 rpm. for 20 min at 4° C. While centrifuging, new 8×96-well plates were loaded with 300 µl HPLC water, and then 100 µl supernatant was transferred and mixed for liquid chromatography-tandem mass spectrometry (LC/MS/MS).

[17] = in vitro; conditions: human
[18] = assay type: in vitro ADME; conditions: human, microsomes
Method: as §5

[19] = In vitro potency data, 30 min pre-incubation, 25 nM M^pro, 25 µM substrate, read-out: IC50

Row | SMILES | IC50 [1, 19] | EC50 [2] | other results
1 | O=C(NC1CCC(F)(F)CC1)C(c1cncnc1)N(C(=O)CCl)c1ccc(-c2cncs2)cc1 (stereo not drawn) [INSCoV-600K, 2-Chloro-N-(2-((4,4-difluorocyclohexyl)amino)-2-oxo-1-(pyrimidin-5-yl)ethyl)-N-(4-(thiazol-5-yl)phenyl)acetamide] | 78 nM | 14.5 µM | –
2 | O=C(NC1CCC(F)(F)CC1)[C@@H](c1cnccn1)N(C(=O)CCl)c1ccc(-c2ccns2)cc1 [INSCoV-601I(l)] | 50 nM | 14.1 µM | Binding mode in crystal structure [3]: covalently bound to Cys145 residue of SARS-CoV-2 M^Pro
3 | N#Cc1cc(OC(F)(F)F)ccc1N(C(=O)CCl)C(C(=O)NC1CCCCC1)c1cccnc1 (stereo not drawn) [INSCoV-517] | 240 nM | 3.22 µM | CC50 at 24 h [4]: > 50 µM
4 | CC(C(=O)NC1CCC(F)(F)CC1)(c1cnccn1)N(C(=O)CCl)c1ccc(-c2ccns2)cc1 (stereo not drawn) [INSCoV-601N, 2-(2-Chloro-N-(4-(isothiazol-5-yl)phenyl)acetamido)-N-(4,4-difluorocyclohexyl)-2-(pyrazin-2-yl)propanamide] | 120 nM | – | Papp A→B at 2 h, 2 µM ([5]; A to B, 2.00 µM, pH 7.40, read-out: Caco-2, Mean Papp,, A to B): < 0.0434 ×10⁻⁶ cm/s; Papp at 4 h, 10 µM ([6]; pH 7.4, pH 7.40, 4 h, read-out: PAMPA, Mean Pe): 15.5 ×10⁻⁶ cm/s; IC50 [7]: 3.25 µM; IC50 [8]: 0.218 µM; half-life at 2 µM [9]: 21.1 min; solubility kinetic [10]: < 1.56 µM; half-life at 2 µM [11]: 32.6 min; IC50 [12]: 0.706 µM; recovery [13]: 0.1%; IC50 [14]: 24.9 µM; IC50 [15]: 5.65 µM; microsomal CLint [16]: 531 µL/min/mg; recovery [17]: 0.2%; microsomal CLint [18]: 169 µL/min/mg
5 | CCN(CC)CCCC(C)Nc1ccnc2cc(Cl)ccc12 (stereo not drawn) [Chloroquine, chloroquine, reference compound] | – | 7.35 µM | –
6 | O=C(NC1CCC(F)(F)CC1)C(c1cnccn1)N(C(=O)CCl)c1ccc(-c2cncs2)cc1 (stereo not drawn) [INSCoV-601G, 2-Chloro-N-(2-((4,4-difluorocyclohexyl)amino)-2-oxo-1-(pyrazin-2-yl)ethyl)-N-(4-(thiazol-5-yl)phenyl)acetamide] | 80 nM | 10.2 µM | –
7 | O=C(NC1CCC(F)(F)CC1)[C@@H](c1cncnc1)N(C(=O)[C@@H](F)Cl)c1ccc(-c2ccno2)cc1 (single isomer, unassigned) [INSCoV-614A(2A), 2-Chloro-N-(2-((4,4-difluorocyclohexyl)amino)-2-oxo-1-(pyrimidin-5-yl)ethyl)-2-fluoro-N-(4-(isoxazol-5-yl)phenyl)acetamide] | 180 nM | 4.25 µM | –
8 | O=C(NC1CCC(F)(F)CC1)C(c1cncnc1)N(C(=O)CCl)c1ccc(-c2cncs2)cc1 (single isomer, unassigned) [2-Chloro-N-(2-((4,4-difluorocyclohexyl)amino)-2-oxo-1-(pyrimidin-5-yl)ethyl)-N-(4-(thiazol-5-yl)phenyl)acetamide] | 50 nM | 11.4 µM | IC50 ([1]; SARS-CoV-2 M^pro IC50′ nM, General summary table): 50 nM
9 | O=C(NC1CCC(F)(F)CC1)C(c1cnccn1)N(C(=O)CCl)c1ccc(-c2ccns2)cc1 (stereo not drawn) [INSCoV-601I, 2-Chloro-N-(2-((4,4-difluorocyclohexyl)amino)-2-oxo-1-(pyrazin-2-yl)ethyl)-N-(4-(isothiazol-5-yl)phenyl)acetamide] | 62 nM | 11.1 µM | –
10 | N#Cc1cc(OC(F)(F)F)ccc1N(C(=O)CCl)C(C(=O)NC1CCC(F)(F)CC1)c1cncnc1 (stereo not drawn) [INSCoV-517A, 2-chloro-N-(2-cyano-4-(trifluoromethoxy)phenyl)-N-(2-((4,4-difluorocyclohexyl)amino)-2-oxo-1-(pyrimidin-5-yl)ethyl)acetamide] | 90 nM | 11.1 µM | –
11 | O=C(NC1CCC(F)(F)CC1)C(c1cncnc1)N(C(=O)CCl)c1ccc(-c2ccno2)cc1 (single isomer, unassigned) [INSCoV-600J(1), 2-Chloro-N-(2-((4,4-difluorocyclohexyl)amino)-2-oxo-1-(pyrimidin-5-yl)ethyl)-N-(4-(isoxazol-5-yl)phenyl)acetamide] | 63 nM | 14.2 µM | –
12 | O=C(NC1CCN(S(=O)(=O)C2CC2)CC1)C(c1cnccn1)N(C(=O)CCl)c1ccc(-c2cnco2)cc1 (stereo not drawn) [INSCoV-501R, 2-Chloro-N-(2-((1-(Cyclopropylsulfonyl)Piperidin-4-yl)Amino)-2-Oxo-1-(Pyrazin-2-yl)Ethyl)-N-(4-(Oxazol-5-yl)Phenyl)Acetamide] | 480 nM | – | –
13 | O=C(NC1CCCCC1)C(c1cccnc1)N(Cc1ccccc1C(F)(F)F)C(=O)CCl (stereo not drawn) [INSCoV-574A, 2-Chloro-N-(2-(Cyclohexylamino)-2-Oxo-1-(Pyridin-3-yl)Ethyl)-N-(2-(Trifluoromethyl)Benzyl)Acetamide] | 4970 nM | – | –
14 | CC(C)(C)c1ccc(N(C(=O)CCl)C(C(=O)NC2CCCCC2)c2cccnc2)cc1 (single isomer, unassigned) [INSCoV-110A(2), 2-(4-tert-butyl-N-(2-chloroacetyl)anilino)-N-cyclohexyl-2-(3-pyridyl)acetamide] | 2150 nM | – | –
15 | CC(C(=O)NC1CCC(F)(F)CC1)(c1cnccn1)N(C(=O)CCl)c1ccc(-c2ccns2)cc1 (single isomer, unassigned) [INSCoV-601N(1), 2-(2-Chloro-N-(4-(isothiazol-5-yl)phenyl)acetamido)-N-(4,4-difluorocyclohexyl)-2-(pyrazin-2-yl)propanamide] | 130 nM | – | –
16 | O=C(NC1CCC(F)(F)CC1)C(c1ccnnc1)N(C(=O)CCl)c1ccc(-c2cnco2)cc1 (stereo not drawn) [INSCoV-537I, 2-Chloro-N-(2-((4,4-Difluorocyclohexyl)Amino)-2-Oxo-1-(Pyridazin-4-yl)Ethyl)-N-(4-(Oxazol-5-yl)Phenyl)Acetamide] | 270 nM | – | –
17 | O=C(NC1CCC(F)(F)CC1)[C@H](c1cncnc1)N(CCc1cccc(F)c1)C(=O)C1CO1 (stereo partly drawn) [INSCoV-600Q(1)] | 22600 nM | – | –
18 | O=C(NC1CCS(=O)(=O)CC1)C(c1cnccn1)N(C(=O)CCl)c1ccc(-c2cnco2)cc1 (stereo not drawn) [INSCoV-501M, 2-Chloro-N-(2-((1,1-Dioxidotetrahydro-2H-Thiopyran-4-yl)Amino)-2-Oxo-1-(Pyrazin-2-yl)Ethyl)-N-(4-(Oxazol-5-yl)Phenyl)Acetamide] | 450 nM | – | –
19 | CC(C(=O)NC1CCC(F)(F)CC1)(c1cncnc1)N(C(=O)CCl)c1ccc(-c2ccno2)cc1 (single isomer, unassigned) [INSCoV-601P(1A), 2-(2-Chloro-N-(4-(isoxazol-5-yl)phenyl)acetamido)-N-(4,4-difluorocyclohexyl)-2-(pyrimidin-5-yl)propanamide] | 140 nM | – | Papp A→B at 2 h, 2 µM [5]: < 0.48 ×10⁻⁶ cm/s; efflux ratio at 2 h, 2 µM [5]: > 0.489; Papp at 4 h, 10 µM ([6]; pH 7.4): 0.626 ×10⁻⁶ cm/s; IC50 [7]: > 50 µM; IC50 [8]: 3.62 µM; half-life at 2 µM [9]: 13.1 min; solubility kinetic [10]: 142 µM (≈ 71.6 µg/mL); half-life at 2 µM [11]: 16.3 min; IC50 [12]: 6.12 µM; recovery [13]: 2.8%; IC50 [14]: > 50 µM; IC50 [15]: > 50 µM; microsomal CLint [16]: 102 µL/min/mg; recovery [17]: 1.3%; microsomal CLint [18]: 66 µL/min/mg
20 | O=C(NC1CCCCC1)C(c1cccnc1)N(C(=O)CCl)c1ccc(N2CCCC2)cc1 (stereo not drawn) [INSCoV-523] | 980 nM | – | –
21 | O=C(NC1CCC(F)(F)CC1)[C@@H](c1cncnc1)N(C(=O)CCl)c1ccc(-c2ccns2)cc1 | 60 nM | – | –
22 | CC(C)(C)c1ccc(N(C(=O)CCl)C(C(=O)NC2CCCCC2)c2cncc(C#N)c2)cc1 (stereo not drawn) [INSCoV-539, N-(4-(Tert-Butyl)Phenyl)-2-Chloro-N-(1-(5-Cyanopyridin-3-yl)-2-(Cyclohexylamino)-2-Oxoethyl)Acetamide] | 800 nM | – | –
23 | O=C(NC1CCC(F)(F)CC1)C(c1cncnc1)N(C(=O)[C@@H]1CO1)c1ccc(-c2cnco2)cc1 (single isomer, unassigned) [INSCoV-600R(2A)] | 2930 nM | – | –
24 | O=C(NC1CCCCC1)C(c1cccnc1)N(Cc1ccc(F)cc1)C(=O)CCl (stereo not drawn) [INSCoV-504] | 16300 nM | – | –
25 | COc1ccccc1CN(C(=O)CCl)C(C(=O)NC1CCCCC1)c1cccnc1 (stereo not drawn) [INSCoV-505] | 8650 nM | – | –
